From patent EP4745153A1, “GLP-1, GIP AND GCG RECEPTOR […] USE THEREOF” (Jiangsu Hengrui Pharmaceuticals Co., Ltd., priority 2023, dated 2025)
Starred links: 1 amine or outer side, 2 acyl side, 3 side chain; linkers in the order of their positions; H or OH if unused. Non-standard residues stand in square brackets, D forms with d. Groups on a side chain read outwards from the residue. No end group written: not given here. *: point of attachment. C20 diacid = O=C(O)CCCCCCCCCCCCCCCCCCC(=O)*; γGlu = O=C(O)[C@H](CCC(=O)[*:2])N[*:1]; αMeK = C[C@](N)(CCCCN)C(=O)O; Iva = CC[C@](C)(N)C(=O)O; AEEA = NCCOCCOCC(=O)O; Aib = CC(C)(N)C(=O)O

Experiments:
human GLP-1R = target: T1, human GLP-1R (Homo sapiens, UniProt P43220); test: cAMP HTRF agonist activity assay in CHO-K1 cells expressing GLP-1R; assay type: cell-based; settings: read-out: Activity against human GLP-1R (EC50 nM); also: 5% FBS, 0.1% Casein
T1 construct: expressed in transfected cells; host or cells: CHO-K1 clonal cell line
Outline: (§1)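 Clonal CHO-K1 lines, 5000 cells/well, exposed to polypeptides for 30 min at 37°C. Intracellular cAMP read by HTRF (cAMP-d2 conjugate plus anti-cAMP-Eu cryptate in lysis buffer). Relative EC50 from four-parameter nonlinear fit of percent maximum response against concentration.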

human GIPR = target: T2, human GIPR (Homo sapiens, UniProt P48546); test: cAMP HTRF agonist activity assay in CHO-K1 cells expressing GIPR; assay type: cell-based; settings: read-out: Activity against human GIPR (EC50 nM); also: 5% FBS, 0.1% Casein
T2 construct: expressed in transfected cells; host or cells: CHO-K1 clonal cell line
T2 sequence (P48546 22-466): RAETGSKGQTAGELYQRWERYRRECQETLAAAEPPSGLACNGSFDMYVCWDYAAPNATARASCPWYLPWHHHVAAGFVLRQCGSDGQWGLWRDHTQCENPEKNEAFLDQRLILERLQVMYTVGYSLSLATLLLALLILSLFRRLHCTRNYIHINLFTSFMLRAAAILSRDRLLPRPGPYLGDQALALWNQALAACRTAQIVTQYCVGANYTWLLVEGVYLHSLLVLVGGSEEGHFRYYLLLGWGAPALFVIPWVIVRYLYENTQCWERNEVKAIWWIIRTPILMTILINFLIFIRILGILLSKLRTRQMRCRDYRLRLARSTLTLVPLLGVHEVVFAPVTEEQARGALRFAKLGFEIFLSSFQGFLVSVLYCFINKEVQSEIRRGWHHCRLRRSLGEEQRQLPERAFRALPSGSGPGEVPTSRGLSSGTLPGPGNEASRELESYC
Outline: as §1

human GCGR = target: T3, human GCGR (Homo sapiens, UniProt P47871); test: cAMP HTRF agonist activity assay in CHO-K1 cells expressing GCGR; assay type: cell-based; settings: read-out: Activity against human GCGR (EC50 nM); also: 5% FBS, 0.1% Casein
T3 construct: expressed in transfected cells; host or cells: CHO-K1 clonal cell line
Description: Functional activity was determined in CHO-K1 clonal cell lines expressing GIPR, GLP-1R, and GCGR. […] Each recipient cell (5000 cells/well) was added to an SV 96-well plate (Cisbio, 66PL96025) and incubated with the prepared polypeptide at 37°Cfor 30 min. The resulting increase in intracellular cAMP was quantitatively measured using the cAMP-GS dynamic HTRF assay kit (Cisbio, 62AM4PEJ). Briefly, the intracellular cAMP levels were determined by adding cAMP-d2 conjugate in cell lysis buffer, followed by the antibody anti-cAMP-Eu cryptate (also in cell lysis buffer).
Using the maximum response percentage vs. the added polypeptide concentration, the relative EC50 values were derived through nonlinear regression analysis and fitted to a four-parameter logarithmic equation. For specific data, refer to Tables 7-1 to 7-8 below. […]

[1] = In vivo efficacy in diet-induced obesity (DIO) mouse model; set-up: species or system C57BL/6J mice; settings: 10 nmol/kg subcutaneous once daily for 24 days
Excerpt: In this example, a DIO mouse model established by high-fat diet induction was used to evaluate the effects on and improvement of obesity and diabetes-related indicators in DIO mice after subcutaneous injection of some of the compounds in the present disclosure.
4.1 Experimental methods: Obese male C57BL/6J mice (23-24 weeks old, obtained from Beijing Vital River Laboratory Animal Technology Co., Ltd.) induced by a high-fat diet were purchased. Six-week-old male C57BL/6J mice were fed a 60% high-fat diet (RD D12492) until their body weight reached 45-50g to obtain DIO model mice. After arriving at the facility and undergoing a week of acclimatization feeding, the animals were randomly divided into groups according to their body weight and administered vehicle (model group), LY3437943, Compound 15, Compound 16, Compound 17 and Compound 18 via subcutaneous injection in the neck. The compound was administered at a dose of 10 nmol/kg, and the frequency of administration was once daily via subcutaneous injection for 24 days. Each group contained 5 DIO mice. According to the experimental design, the body weight of each mouse was weighed and recorded daily at 3 pm or before administration, the average body weight of each group of mice was calculated, and a curve of body weight change over time was plotted. After the experiment, the fat and other organs of the mice were removed from various parts of the body, weighed, and recorded.

[2] = In vivo efficacy in diet-induced obesity (DIO) rat model; settings: DIO rats
Description: In this experiment, a DIO rat model established on a 45% high-fat diet (HFD) was used to evaluate the effects of compounds on obesity-related indicators in DIO rats.
After one week of acclimatization, all rats were randomly divided into two groups: a normal group and a model group. The rats in the model group were then fed 45% HFD (Medison: MD12032), while the rats in the normal group were fed normal food. The body weight of the rats was measured weekly to monitor the modeling process.
DIO rats fed a high-fat diet for 37 weeks were weighed, and 75 DIO rats (approximately 1100g) and 8 rats (approximately 800g) on a normal diet (Chow diet) were selected and separated into individual cages. Each cage was fed approximately 100g of food at a time, and the food was changed every 48 hours. A preliminary sham dose experiment was then conducted. Subcutaneous acupuncture was performed on the neck once daily at 4 pm for 9 consecutive days. Body weight was measured before each acupuncture session and the effect of sham dose on body weight was observed. A curve of body weight changes over time was plotted. The formal dosing experiment was initiated after the body weight had stabilized.
Six Chow diet rats (weighing approximately 800g) and 30 HFD rats (weighing approximately 1100g) were selected through a preliminary sham dose experiment for subsequent dosing experiments. […] During the experiment, all rats were housed in single cages. The compound was dissolved in PBS solution at pH 7.4. On the day of grouping (Day 1), rats in each group were given the drug by subcutaneous injection in the neck according to their body weight, once daily (QD), as detailed in Table 9. […] The body weight was measured once daily at 15:00 or before administration, and a curve of body weight changes over time was plotted. Food intake: 1-7 days, measured once daily at 15:00 or before administration; 8-40 days, measured once every three days at 15:00 or before administration. A curve of changes in daily/cumulative food intake over time was plotted. Table 9. Dosing information for experimental groups

[3] = target: human glucagon-like peptide-1 receptor (human, UniProt P43220 24-463); test: cell-based or functional assay
[4] = target: T4, human glucose-dependent insulinotropic polypeptide receptor (human, UniProt P48546 22-466); test: cell-based or functional assay
T4 sequence (looked up): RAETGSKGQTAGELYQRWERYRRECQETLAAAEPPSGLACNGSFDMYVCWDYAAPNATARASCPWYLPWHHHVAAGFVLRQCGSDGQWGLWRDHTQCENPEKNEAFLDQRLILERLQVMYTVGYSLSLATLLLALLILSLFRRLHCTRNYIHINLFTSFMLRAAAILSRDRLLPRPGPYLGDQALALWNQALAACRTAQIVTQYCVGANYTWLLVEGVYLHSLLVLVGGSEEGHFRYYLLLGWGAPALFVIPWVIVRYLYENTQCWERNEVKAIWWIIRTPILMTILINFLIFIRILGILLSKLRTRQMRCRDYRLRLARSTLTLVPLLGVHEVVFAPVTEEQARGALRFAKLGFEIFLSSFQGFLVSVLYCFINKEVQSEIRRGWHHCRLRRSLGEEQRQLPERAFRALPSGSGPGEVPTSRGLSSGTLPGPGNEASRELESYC

human glucagon receptor = human glucagon receptor (human, UniProt P47871 26-477); test: cell-based or functional assay
[5] = after dose adjustment, 10 nmol/kg subcutaneous QD

Chain of human glucagon receptor (P47871 26-477): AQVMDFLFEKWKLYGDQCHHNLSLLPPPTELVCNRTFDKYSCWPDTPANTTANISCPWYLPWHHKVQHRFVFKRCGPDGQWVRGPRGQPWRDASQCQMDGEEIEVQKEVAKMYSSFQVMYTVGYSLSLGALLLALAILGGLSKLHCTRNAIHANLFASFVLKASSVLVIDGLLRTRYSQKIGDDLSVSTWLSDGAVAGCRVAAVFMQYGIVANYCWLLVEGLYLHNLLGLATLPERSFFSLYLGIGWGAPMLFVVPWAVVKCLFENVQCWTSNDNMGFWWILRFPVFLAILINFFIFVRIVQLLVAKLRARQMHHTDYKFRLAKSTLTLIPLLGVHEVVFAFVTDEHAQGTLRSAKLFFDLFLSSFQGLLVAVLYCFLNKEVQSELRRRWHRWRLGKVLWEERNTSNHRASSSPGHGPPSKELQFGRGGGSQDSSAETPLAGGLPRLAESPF
T3 sequence (P47871 26-477): as above
T1 sequence (P43220 24-463): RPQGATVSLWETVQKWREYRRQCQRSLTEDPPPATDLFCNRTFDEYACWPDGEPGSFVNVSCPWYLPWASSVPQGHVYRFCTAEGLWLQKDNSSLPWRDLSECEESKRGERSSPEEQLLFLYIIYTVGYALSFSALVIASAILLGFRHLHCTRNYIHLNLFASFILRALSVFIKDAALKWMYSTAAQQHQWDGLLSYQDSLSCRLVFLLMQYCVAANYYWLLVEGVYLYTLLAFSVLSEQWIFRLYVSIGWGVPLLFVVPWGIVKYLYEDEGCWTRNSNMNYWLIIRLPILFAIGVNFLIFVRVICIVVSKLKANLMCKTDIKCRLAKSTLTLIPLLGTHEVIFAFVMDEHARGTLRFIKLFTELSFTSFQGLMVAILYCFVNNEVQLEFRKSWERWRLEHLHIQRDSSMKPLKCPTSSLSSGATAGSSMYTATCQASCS

| Molecule | EC50 (human GLP-1R) | EC50 (human GIPR) | EC50 (human GCGR) | body weight of DIO mice compared with the test group given the vehicle [1] | body weight reduction at the experimental endpoint ([1]; DIO mice) | 24h food intake compared with the model group [2, 5] | cumulative food intake compared with the model group [2, 5] | cumulative food intake ([2]; entire administration period (before and after dose adjustment), 1 then 10 nmol/kg subcutaneous QD) | body weight loss at the end of the experiment ([2]; subcutaneous QD, 1 nmol/kg adjusted to 10 nmol/kg from day 15) | Activity against human GLP-1R (EC50 nM) [3] | Activity against human GIPR (EC50 nM) [4] | Activity against human GCGR (EC50 nM) (human glucagon receptor) |
| --- | --- | --- | --- | --- | --- | --- | --- | --- | --- | --- | --- | --- |
| CC[C@H](C)[C@H](NC(=O)[C@H](Cc1ccccc1)NC(=O)[C@H](C)NC(=O)C(C)(C)NC(=O)[C@H](CCC(N)=O)NC(=O)[C@H](C)NC(=O)[C@H](CCCCNC(=O)COCCOCCNC(=O)CC[C@H](NC(=O)CCCCCCCCCCCCCCCCCCC(=O)O)C(=O)O)NC(=O)[C@H](CCCCN)NC(=O)[C@H](CC(=O)O)NC(=O)[C@H](CC(C)C)NC(=O)[C@](C)(CC(C)C)NC(=O)[C@@H](NC(=O)[C@H](CO)NC(=O)[C@H](Cc1ccc(O)cc1)NC(=O)[C@H](CC(=O)O)NC(=O)[C@H](CO)NC(=O)[C@@H](NC(=O)[C@H](Cc1ccccc1)NC(=O)[C@@H](NC(=O)CNC(=O)[C@H](CCC(N)=O)NC(=O)C(C)(C)NC(=O)[C@@H](N)Cc1ccc(O)cc1)[C@@H](C)O)[C@@H](C)O)[C@@H](C)CC)C(=O)N[C@@H](CCC(=O)O)C(=O)N[C@@H](Cc1ccc(O)cc1)C(=O)N[C@@H](CC(C)C)C(=O)N[C@@H](CC(C)C)C(=O)N[C@@H](CCC(=O)O)C(=O)NCC(=O)NCC(=O)N1CCC[C@H]1C(=O)N[C@@H](CO)C(=O)N[C@@H](CO)C(=O)NCC(=O)N[C@@H](C)C(=O)N1CCC[C@H]1C(=O)N1CCC[C@H]1C(=O)N1CCC[C@H]1C(=O)N[C@@H](CO)C(N)=O [LY3437943, reference compound] | 0.08 nM | 0.002 nM | 0.412 nM | significant reduction in body weight | 30.4% | significantly reduced | significantly reduced | 273.8 ± 15.0 g | 29.4% | – | – | – |
| H[Aib]HGTFTSDLS[αMeK]LLEK([AEEA-AEEA-γGlu-C20 diacid])KAA[Iva]EFVEWLIEGGPSSGAPPPS-NH2 (N-terminus assumed; SMILES CC[C@H](C)[C@H](NC(=O)[C@H](CC(C)C)NC(=O)[C@H](Cc1c[nH]c2ccccc12)NC(=O)[C@H](CCC(=O)O)NC(=O)[C@@H](NC(=O)[C@H](Cc1ccccc1)NC(=O)[C@H](CCC(=O)O)NC(=O)[C@](C)(CC)NC(=O)[C@H](C)NC(=O)[C@H](C)NC(=O)[C@H](CCCCN)NC(=O)[C@H](CCCCNC(=O)COCCOCCNC(=O)COCCOCCNC(=O)CC[C@H](NC(=O)CCCCCCCCCCCCCCCCCCC(=O)O)C(=O)O)NC(=O)[C@H](CCC(=O)O)NC(=O)[C@H](CC(C)C)NC(=O)[C@H](CC(C)C)NC(=O)[C@](C)(CCCCN)NC(=O)[C@H](CO)NC(=O)[C@H](CC(C)C)NC(=O)[C@H](CC(=O)O)NC(=O)[C@H](CO)NC(=O)[C@@H](NC(=O)[C@H](Cc1ccccc1)NC(=O)[C@@H](NC(=O)CNC(=O)[C@H](Cc1c[nH]cn1)NC(=O)C(C)(C)NC(=O)[C@@H](N)Cc1c[nH]cn1)[C@@H](C)O)[C@@H](C)O)C(C)C)C(=O)N[C@@H](CCC(=O)O)C(=O)NCC(=O)NCC(=O)N1CCC[C@H]1C(=O)N[C@@H](CO)C(=O)N[C@@H](CO)C(=O)NCC(=O)N[C@@H](C)C(=O)N1CCC[C@H]1C(=O)N1CCC[C@H]1C(=O)N1CCC[C@H]1C(=O)N[C@@H](CO)C(N)=O) [Compound No. 0133] | – | – | – | – | – | – | – | – | – | 0.016 nM | 0.002 nM | 0.03 nM |
| H[Aib]HGTFTSDLS[αMeK]ILEK([AEEA-AEEA-γGlu-C20 diacid])KAA[Iva]EFVEWLIEGGPSSGAPPPS-NH2 (N-terminus assumed; SMILES CC[C@H](C)[C@H](NC(=O)[C@H](CC(C)C)NC(=O)[C@H](Cc1c[nH]c2ccccc12)NC(=O)[C@H](CCC(=O)O)NC(=O)[C@@H](NC(=O)[C@H](Cc1ccccc1)NC(=O)[C@H](CCC(=O)O)NC(=O)[C@](C)(CC)NC(=O)[C@H](C)NC(=O)[C@H](C)NC(=O)[C@H](CCCCN)NC(=O)[C@H](CCCCNC(=O)COCCOCCNC(=O)COCCOCCNC(=O)CC[C@H](NC(=O)CCCCCCCCCCCCCCCCCCC(=O)O)C(=O)O)NC(=O)[C@H](CCC(=O)O)NC(=O)[C@H](CC(C)C)NC(=O)[C@@H](NC(=O)[C@](C)(CCCCN)NC(=O)[C@H](CO)NC(=O)[C@H](CC(C)C)NC(=O)[C@H](CC(=O)O)NC(=O)[C@H](CO)NC(=O)[C@@H](NC(=O)[C@H](Cc1ccccc1)NC(=O)[C@@H](NC(=O)CNC(=O)[C@H](Cc1c[nH]cn1)NC(=O)C(C)(C)NC(=O)[C@@H](N)Cc1c[nH]cn1)[C@@H](C)O)[C@@H](C)O)[C@@H](C)CC)C(C)C)C(=O)N[C@@H](CCC(=O)O)C(=O)NCC(=O)NCC(=O)N1CCC[C@H]1C(=O)N[C@@H](CO)C(=O)N[C@@H](CO)C(=O)NCC(=O)N[C@@H](C)C(=O)N1CCC[C@H]1C(=O)N1CCC[C@H]1C(=O)N1CCC[C@H]1C(=O)N[C@@H](CO)C(N)=O) [Compound No. 0134] | – | – | – | – | – | – | – | – | – | 0.017 nM | 0.002 nM | 0.025 nM |
